Active and inactive are the calls of the source.
Legend:
[1] = molecular target: T1, Methionyl-tRNA synthetase, putative (Trypanosoma brucei brucei, UniProt Q38C91); format: functional, Trypanosoma brucei brucei strain 927/4 GUTat10.1
T1 sequence (Q38C91 whole entry): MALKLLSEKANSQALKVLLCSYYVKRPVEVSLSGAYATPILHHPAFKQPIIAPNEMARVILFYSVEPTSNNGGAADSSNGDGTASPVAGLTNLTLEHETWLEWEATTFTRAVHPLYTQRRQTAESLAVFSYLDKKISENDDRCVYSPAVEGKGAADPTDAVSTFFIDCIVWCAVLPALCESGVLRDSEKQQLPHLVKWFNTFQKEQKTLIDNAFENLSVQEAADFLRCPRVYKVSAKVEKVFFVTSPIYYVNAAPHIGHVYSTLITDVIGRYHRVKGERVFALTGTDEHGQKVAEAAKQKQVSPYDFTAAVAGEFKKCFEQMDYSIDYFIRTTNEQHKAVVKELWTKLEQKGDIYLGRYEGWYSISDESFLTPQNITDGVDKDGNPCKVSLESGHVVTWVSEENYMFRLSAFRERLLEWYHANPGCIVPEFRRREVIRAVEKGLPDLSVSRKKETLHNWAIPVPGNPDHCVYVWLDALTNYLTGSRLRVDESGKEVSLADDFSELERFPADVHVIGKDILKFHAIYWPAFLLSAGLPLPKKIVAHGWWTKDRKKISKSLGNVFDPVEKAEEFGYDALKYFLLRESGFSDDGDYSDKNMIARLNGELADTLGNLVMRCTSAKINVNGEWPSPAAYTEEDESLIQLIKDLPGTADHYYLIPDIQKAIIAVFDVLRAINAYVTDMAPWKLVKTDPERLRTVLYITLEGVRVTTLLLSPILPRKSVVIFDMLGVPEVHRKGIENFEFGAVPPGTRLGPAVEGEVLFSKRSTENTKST

[2] = Counterscreen for inhibitors of Trypanosoma brucei methionyl tRNA synthetase (MetRS): Luminescence-based cell-based high throughput dose response assay to identify compounds that are cytotoxic to Jurkat human T lymphocyte cells.; format: functional
[3] = molecular target: T1, Methionyl-tRNA synthetase, putative; format: functional, Trypanosoma brucei brucei strain 927/4 GUTat10.1; remark: listed apart in the source
[4] = Late stage counterscreen for inhibitors of Trypanosoma brucei methionyl tRNA synthetase (MetRS): Luminescence-based cell-based high throughput dose response assay to identify compounds that are cytotoxic to Jurkat human T lymphocyte cells.; format: functional
[5] = HEK-293T cell viability reduction – luminescence, B-cell screen hits, cytotoxicity control for BCR NF-kB inhibitor project, dose response (AID 489021); format: functional, cell-based;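 further: HEK-293T cells carrying an NF-kB luciferase reporter; cells exposed to compound for about 14 hours before viability readout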
Paired box protein Pax-8 = Paired box protein Pax-8 (Homo sapiens, UniProt Q06710); test: PAX8 transcriptional activity inhibition in RMG-I – RMG-I cells, luciferase, cherry-pick, dose response (AID 687027); format: functional, cell-based;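 further: luciferase reporter driven by Pax8 target thyroperoxidase promoter measured by SteadyGlo luminescence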
Chain of Paired box protein Pax-8 (Q06710 whole entry): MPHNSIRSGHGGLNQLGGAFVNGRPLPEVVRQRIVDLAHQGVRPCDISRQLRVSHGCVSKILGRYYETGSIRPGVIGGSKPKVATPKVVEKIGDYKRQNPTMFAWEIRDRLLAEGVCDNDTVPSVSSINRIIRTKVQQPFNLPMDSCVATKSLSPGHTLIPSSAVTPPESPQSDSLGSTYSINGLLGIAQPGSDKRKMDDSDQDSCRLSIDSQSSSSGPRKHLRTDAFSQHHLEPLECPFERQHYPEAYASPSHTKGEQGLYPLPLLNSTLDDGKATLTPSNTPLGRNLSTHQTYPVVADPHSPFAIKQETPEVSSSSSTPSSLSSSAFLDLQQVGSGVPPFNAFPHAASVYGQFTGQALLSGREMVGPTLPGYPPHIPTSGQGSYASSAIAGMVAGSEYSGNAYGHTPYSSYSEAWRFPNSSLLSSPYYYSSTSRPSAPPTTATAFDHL

[6] = inhibitors acting on PAX2 in cells – cell-based, plate reader, dry powder samples, selectivity assay for PAX8 inhibitor project, dose response (AID 743048); format: functional;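 further: HEK293 cells carrying a WT1 promoter luciferase reporter driven by expressed Pax2; potency is for inhibition of Pax2 driven reporter signal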
[7] = PAX5 cellular inhibition readout – cell-based, plate reader, dry powder samples, selectivity assay for PAX8 inhibitor project, dose response (AID 743047); format: functional;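 further: HEK293 cells carrying a Pax5 driven CD19 promoter luciferase reporter; potency of inhibitors that lower reporter luminescence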
[8] = IGROV1 cell killing – plate reader, dry powder samples, PAX8 inhibitor project, dose response (AID 743043); format: functional, cell-based; conditions: IGROV-1
[9] = OVCAR4 cell viability loss – plate reader, dry powder, SA11, cytotoxicity control for PAX8 inhibitor project, dose response (AID 743150); format: functional, cell-based; conditions: OVCAR-4
[10] = COV434 cell viability loss – plate reader, dry powder, SA7, cytotoxicity control for PAX8 inhibitor project, dose response (AID 743145); format: functional, cell-based
[11] = PAX8-dependent cell viability loss – plate reader, dry powder, dose response (AID 743049); format: functional, cell-based
[12] = toxicity toward immortalized ovarian surface epithelium – cell-based, plate reader, dry powder samples, cytotoxicity control for PAX8 inhibitor project, dose response (AID 743045); format: functional
[13] = A2780 cell killing – plate reader, dry powder samples, cytotoxicity control, dose response (AID 743046); format: functional, cell-based
[14] = OVCAR-3 cell viability loss – plate reader, dry powder samples, PAX8 inhibitor project, dose response (AID 743044); format: functional, cell-based
[15] = OVCAR8 cell viability loss – plate reader, dry powder samples, PAX8 project, dose response (AID 743197); format: functional, cell-based; conditions: OVCAR-8
[16] = inhibitors of TRPM1-promoter reporter in SK-MEL-5 – cell-based, luciferase, dry powder, set 9, MITF inhibitor project, dose response (AID 651588); format: functional
[17] = cytotoxicity in MITF-independent A375 cells – cell-based, CellTiter-Glo luminescence, dry powder, set 4, counter-screen for MITF inhibitor project, dose response (AID 624364); format: functional; conditions: A-375;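 further: A375 melanoma cells are MITF independent so this is a counter screen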
[18] = viability loss in MITF-independent A375 cells – cell-based, CellTiter-Glo luminescence, dry powder, set 7, counter-screen for MITF inhibitor project, dose response (AID 624490); format: functional; conditions: A-375
[19] = MITF Orthogonal Assay: MALME3 CTG Assay Measured in Cell-Based System Using Plate Reader - 2084-04_Inhibitor_Dose_DryPowder_Activity_Set6.; format: functional; conditions: MALME-3
[20] = growth inhibition of SK-MEL-5 melanoma cells – cell-based, CellTiter-Glo luminescence, dry powder, set 8, orthogonal assay for MITF inhibitor project, dose response (AID 651586); format: functional
[21] = growth inhibition of MALME3 cells – cell-based, CellTiter-Glo luminescence, dry powder, set 5, orthogonal assay for MITF inhibitor project, dose response (AID 651584); format: functional; conditions: MALME-3
[22] = cytotoxicity in melanoma parental cells – cell-based, CellTiter-Glo, dry powder, set 6, MITF inhibitor project, dose response (AID 624429); format: functional; conditions: SK-MEL-5
[23] = MITF Orthogonal Assay: SK-MEL-5 CTG Assay Measured in Cell-Based System Using Plate Reader - 2084-02_Inhibitor_Dose_DryPowder_Activity_Set5.; format: functional
[24] = viability loss in MITF-independent A375 cells – cell-based, CellTiter-Glo luminescence, dry powder, set 6, counter-screen for MITF inhibitor project, dose response (AID 624488); format: functional; conditions: A-375
[25] = MITF Measured in Cell-Based System Using Plate Reader - 2084-01_Inhibitor_Dose_DryPowder_Activity_Set6.; format: functional
[26] = MITF Measured in Cell-Based System Using Plate Reader - 2084-01_Inhibitor_Dose_DryPowder_Activity_Set7.; format: functional
[27] = molecular target: NAD-dependent protein deacylase sirtuin-5, mitochondrial (Homo sapiens, UniProt Q9NXA8); test: blockers of sirtuin-5 peptide desuccinylation – biochemical, fluorescence imaging, cherry-pick, set 6, dose response (AID 720597)
Chain of NAD-dependent protein deacylase sirtuin-5, mitochondrial (Q9NXA8 whole entry): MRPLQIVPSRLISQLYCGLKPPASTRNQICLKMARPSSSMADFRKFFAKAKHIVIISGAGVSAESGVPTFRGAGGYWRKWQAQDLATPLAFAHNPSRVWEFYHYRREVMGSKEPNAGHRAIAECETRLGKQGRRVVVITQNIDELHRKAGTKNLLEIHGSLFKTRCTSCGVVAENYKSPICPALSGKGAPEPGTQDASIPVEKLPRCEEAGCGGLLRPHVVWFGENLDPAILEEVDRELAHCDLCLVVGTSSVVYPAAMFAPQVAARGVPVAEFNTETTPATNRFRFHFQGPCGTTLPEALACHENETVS

With `O=C(NCc1nc2ccccc2[nH]1)C1=C[C@H](C2CC2)C[C@H](OCc2ccc(CO)cc2)O1` the IC50 [1] was 8.95 µM (active), the IC50 [2] was 83.3 µM (inactive) and the IC50 [3] was 3.68 µM (active). For the same compound, the IC50 [4] was > 83.3 µM (inactive).

For `CCN(CC(=O)Nc1c(F)cccc1F)C(=O)c1cc(S(=O)(=O)N(C)C)ccc1N1CCCC1`, the IC50 [5] was > 80 µM (inactive), the AC50 (Paired box protein Pax-8) was 7.72 µM (active) and the AC50 [6] was 88.8 µM (active). For the same compound, the AC50 [7] was 73.1 µM (active), the AC50 [8] was 14.2 µM (active) and the AC50 [9] was 58.9 µM (active). The AC50 [10] was 29.4 µM (active) and the AC50 [11] was 39.3 µM (active).

In the case of `Cc1ccc(S(=O)(=O)Nc2ccc3c(c2)C(=O)N([C@H](C)CO)C[C@H](C)[C@@H](CN(C)S(=O)(=O)c2ccc(C)cc2)OCCCC[C@H](C)O3)cc1`, the AC50 (Paired box protein Pax-8) was 5.76 µM (active), the AC50 [12] was 23.6 µM (active) and the AC50 [13] was 34.5 µM (active). The AC50 [14] was 18.5 µM (active), the AC50 [8] was 44.2 µM (active) and the AC50 [15] was > 70 µM (inactive).

For `NC1=C(NS(=O)(=O)c2ccccc2)C(=O)c2ccccc2C1=O`, the AC50 [16] was 15.8 µM (active), the AC50 [17] was > 70 µM (inactive) and the AC50 [18] was > 70 µM (inactive). For the same compound, the AC50 [19] was 22.6 µM (active), the AC50 [20] was 17.5 µM (active) and the AC50 [21] was 22.6 µM (active). For the same compound, the AC50 [22] was 16.1 µM (active), the AC50 [23] was 16.1 µM (active) and the AC50 [24] was 54.6 µM (active). The AC50 [25] was 7 µM (active) and the AC50 [26] was 4.7 µM (active).

With `O=C(C[C@H]1C[C@H]2c3cc(NC(=O)C4CCC4)ccc3O[C@H]2[C@H](CO)O1)NCCN1CCCCC1` the AC50 [27] was > 30 µM (inactive).

From ChEMBL document CHEMBL1201862, “PubChem BioAssay data set” (2004)
